Results from US7223751B2, “Sulfonamide derivatives, intermediate thereof, its preparation methods, and pharmaceutical composition comprising the same” (Kolon Ind. Inc., priority 2001, dated 2007).

How the values were obtained:
[1] = tested on: HUVEC (human umbilical vein endothelial cell) cells; test: Tube formation activity on matrigel; type: cell-based; set-up: key: −: control; ±: tube almost resembles control; +: inhibition; ++: significant inhibition; +++: complete inhibition; conditions: 16-24 hours
Procedure: In a culture flask previously coated with gelatin, HUVEC (human umbilical vein endothelial cell) cells cultured with a M199 medium (containing 20% FBS, 3 ng/ml bFGF, 100 μg/ml heparin) were treated with trypsin/EDTA, and then number of cells are counted so that number of cells may be 2×10^4 cells/well in a 96-well plate previously coated with matrigel. Samples were then added and cultured in a CO2 culture medium at 37° C. for 16-24 hours.

[2] = target: MMP-14 (Homo sapiens, UniProt P50281); test: MMP inhibiting activity, fluorescence assay; type: biochemical; conditions: read-out: Enzyme inhibiting constant IC50 MMP-14
Procedure: (§1) Inhibitory activities of all the enzymes were measured similarly to the MMP-2 activity measuring method shown below. Prior to measuring, proMMP-2 was treated with 1 mM p-aminophenyl mercuricacetate at 37° C. for 45 minutes to activate it. The ProMMP-9 was activated to an enzyme with MMP-3, and stored at −80° C. until used.
(§2) MMP activities were measured by fluorescence assay by changing a microtiter plate formate according to the reported method (Knight, C. G., Willenbrock, F., Murphy, G. A., FEBS Lett. 1992, 296, 263-266). On a dynatech MicroFLUOR plate, a buffer solution comprising 50 Mm Tris-HCl pH 7.5, 10 mM CaCl2, 0.15 M NaCl, 0.05% Brij, and 1-8 μM of a substrate (Mca-Pro-Leu-Gly-Leu-Dpa-Ala-Arg-NH2), and various concentrations of inhibitors were introduced, and it was reacted with activated enzymes at 37° C. for 20-30 minutes. Reaction was terminated by putting the reactant in 50 mM EDTA, and then fluorescence was measured with a spectrofluorometer attached to a microplate reader (λex 328 nm, λ em 393 nm). The inhibiting activity degree was indicated by an IC50 value, which is a concentration inhibiting activity by 50% compared to the control.

[3] = target: MMP-9 (Homo sapiens, UniProt P14780); test: MMP inhibiting activity, fluorescence assay; type: biochemical; conditions: read-out: Enzyme inhibiting constant IC50 MMP-9
Procedure: as §1, §2

[4] = target: T1, MMP-1 (Homo sapiens, UniProt P03956); test: MMP inhibiting activity, fluorescence assay; type: biochemical; conditions: read-out: Enzyme inhibiting constant IC50 MMP-1
T1 sequence (P03956 100-469): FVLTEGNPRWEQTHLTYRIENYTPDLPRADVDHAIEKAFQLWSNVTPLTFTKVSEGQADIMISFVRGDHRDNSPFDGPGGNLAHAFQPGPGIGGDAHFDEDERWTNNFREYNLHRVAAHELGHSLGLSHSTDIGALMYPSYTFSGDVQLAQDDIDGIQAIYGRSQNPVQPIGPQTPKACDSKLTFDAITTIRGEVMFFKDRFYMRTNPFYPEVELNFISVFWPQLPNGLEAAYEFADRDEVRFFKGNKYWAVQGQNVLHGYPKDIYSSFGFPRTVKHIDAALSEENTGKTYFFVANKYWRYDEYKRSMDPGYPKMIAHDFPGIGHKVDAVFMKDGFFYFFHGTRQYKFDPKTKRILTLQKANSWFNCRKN
Procedure: as §1, §2

[5] = target: MMP-13 (Homo sapiens, UniProt P45452); test: MMP inhibiting activity, fluorescence assay; type: biochemical; conditions: read-out: Enzyme inhibiting constant IC50 MMP-13
Procedure: as §1, §2

[6] = target: T2, MMP-2 (Homo sapiens, UniProt P08253); test: MMP inhibiting activity, fluorescence assay; type: biochemical; conditions: read-out: Enzyme inhibiting constant IC50 MMP-2
T2 sequence (P08253 110-660): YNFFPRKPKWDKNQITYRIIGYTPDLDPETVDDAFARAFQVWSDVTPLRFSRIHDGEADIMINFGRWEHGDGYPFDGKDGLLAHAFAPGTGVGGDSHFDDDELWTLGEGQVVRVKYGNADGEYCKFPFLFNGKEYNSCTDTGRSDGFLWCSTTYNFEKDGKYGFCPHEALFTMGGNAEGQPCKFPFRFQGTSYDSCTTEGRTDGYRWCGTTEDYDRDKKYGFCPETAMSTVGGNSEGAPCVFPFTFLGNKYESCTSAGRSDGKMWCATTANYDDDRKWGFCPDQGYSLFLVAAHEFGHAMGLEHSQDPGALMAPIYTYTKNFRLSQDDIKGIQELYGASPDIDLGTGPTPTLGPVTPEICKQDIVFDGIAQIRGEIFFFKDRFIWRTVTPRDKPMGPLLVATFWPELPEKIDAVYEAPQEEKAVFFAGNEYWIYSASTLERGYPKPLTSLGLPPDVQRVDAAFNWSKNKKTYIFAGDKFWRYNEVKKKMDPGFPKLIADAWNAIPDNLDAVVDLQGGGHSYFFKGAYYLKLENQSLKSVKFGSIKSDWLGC
Procedure: as §1, §2

MMP-9, sequence (P14780 107-707 limits assumed, species assumed): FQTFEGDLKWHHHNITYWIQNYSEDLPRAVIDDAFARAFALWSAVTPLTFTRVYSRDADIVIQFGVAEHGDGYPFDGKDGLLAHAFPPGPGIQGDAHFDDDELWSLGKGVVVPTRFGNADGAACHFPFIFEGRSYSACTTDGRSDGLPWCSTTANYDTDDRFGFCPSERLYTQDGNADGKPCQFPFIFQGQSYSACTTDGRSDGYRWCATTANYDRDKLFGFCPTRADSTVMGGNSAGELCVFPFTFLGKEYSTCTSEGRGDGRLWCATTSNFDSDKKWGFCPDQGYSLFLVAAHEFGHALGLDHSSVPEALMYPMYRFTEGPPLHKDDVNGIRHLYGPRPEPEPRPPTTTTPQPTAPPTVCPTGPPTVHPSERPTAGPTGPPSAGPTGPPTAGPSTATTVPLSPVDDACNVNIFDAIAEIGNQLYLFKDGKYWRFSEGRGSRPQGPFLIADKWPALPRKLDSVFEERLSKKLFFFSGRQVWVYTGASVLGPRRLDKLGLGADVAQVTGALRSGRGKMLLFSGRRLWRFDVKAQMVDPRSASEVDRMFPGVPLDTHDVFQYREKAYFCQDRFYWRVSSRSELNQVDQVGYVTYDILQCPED

Row | Compound | Tube Formation ([1]; concentration 5 μM) | Tube Formation ([1]; concentration 50 μM) | IC50 [2] | IC50 [3] | IC50 [4] | IC50 [5] | IC50 [6] | Tube Formation ([1]; concentration 100 μM) | Tube Formation ([1]; concentration 0.5 μM)
1 | 4-Benzyl-1-(4-methoxy-benzenesulfonyl)-5-oxo-piperazine-2-hydroxamate [Example 7] | ± | + | 0.036 µM | 0.025 µM | 0.052 µM | 0.018 µM | 0.007 µM |  | 
2 | CCCCCCCCN1CC(C(=O)NO)N(S(=O)(=O)c2ccc(-c3ccc(Br)cc3)cc2)CC1=O (stereo not drawn) [Example 32, 1-(4′-Bromo-biphenyl-4-sulfonyl)-4-octyl-5-oxo-piperazine-2-hydroxamate] | ++ | +++ |  | 0.0013 µM | 0.016 µM | 0.007 µM | 0.002 µM | +++ | 
3 | CCCCCCCCN1CC(C(=O)O)N(S(=O)(=O)c2ccc(NC(=O)c3ccc(Cl)cc3)cc2)CC1=O (stereo not drawn) [Example 60, 1-[4-(4-chloro-benzoylamino)-benzenesulfonyl]-4-octyl-5-oxo-piperazine-2-carboxylic acid] | ++ | ++ |  | 0.0032 µM | 0.018 µM | 0.024 µM | 0.003 µM |  | +
4 | COc1ccc(S(=O)(=O)N2CC(=O)NCC2C(=O)NO)cc1 (stereo not drawn) [Example 5, 1-(4-Methoxy-benzenesulfonyl)-5-oxo-piperazine-2-hydroxamate] | ± | + | 0.028 µM | 0.0124 µM |  |  | 0.004 µM | ++ | 
